Data: patent US11098073B2, “Triphenylphosphonium-tethered tetracyclines for use in treating cancer” (Oxford University Innovation Limited, priority 2017, dated 2021)
Structures can show the parent of a compound that is named as a salt.

Test system: MDA-231 cancer cells
Assay: Inhibition of proliferation assay: cell confluence (IncuCyte live cell imaging)
Type: cell-based
Settings: compound tested at 10 μM, images every 3 h over 4-5 d, relative confluence normalised to time zero
Description: Inhibition of Proliferation Assay
The confluence value is a surrogate for cell proliferation and growth. The value is expressed as a percent confluence, which represents the fraction of culture dish-surface that is occupied by cells. As the number of cells in the dish increases over time due to proliferation, so will their coverage of that surface increase. Expansion of the cell population on the cell culture-dish surface and confluence have mostly a linear relationship until the cells on the plate surface begin to reach saturation or maximum density.
Confluence is determined based on image analysis. Image based software can identify objects in the image field base on changes to pixel density in a grey scale image. The software can then assign a mask to those pixels within the object. Objects can be ‘gated’ out based on size and shape. To determine cell confluence, images of cells are first masked as objects. The surface area of the image that is masked is measured and compared to the total surface area of the culture dish surface to obtain a percent confluence.
MDA-231 cancer cells were obtained from ATCC. Cells were cultured in Dulbecco's Modified Eagle Medium (DMEM) supplemented with 10% Fetal Bovine Serum (FBS), 2 mM Glutamax, 1 mM Non Essential Amino Acid (NEAA) solution and 1 mM sodium pyruvate. […] Final DMSO concentrations were […]. Images were acquired with an IncuCyte Live Cell Imaging microscopy (Essen Bioscience) at every 3 h under cell culture conditions with 10 OX objective over 4-5 d. Cell confluence was calculated from one field of view per well using the IncuCyte in-built algorithm. Relative confluence values were obtained by normalising each value to the time zero value in each sample.

SMILES | % Confluence [%]
C[C@H]1c2ccc(NC(=O)CNC(=O)CCC[P+](c3ccccc3)(c3ccccc3)c3ccccc3)c(O)c2C(=O)C2=C(O)[C@]3(O)C(=O)C(C(N)=O)=C(O)[C@@H](N(C)C)[C@@H]3[C@@H](O)[C@@H]21 [Example 9, {3-[({[(5R,5aR,6S,6aR,7S,10aS)-9-carbamoyl-7-(dimethylamino)-1,6,8,10a,11-pentahydroxy-5-methyl-10,12-dioxo-5,5a,6,6a,7,10,10a,12-octahydrotetracen-2-yl]carbamoyl}methyl)carbamoyl]propyl}triphenylphosphonium trifluoroacetate] | 83
C[C@H]1c2ccc(NC(=O)CCCCC[P+](c3ccccc3)(c3ccccc3)c3ccccc3)c(O)c2C(=O)C2=C(O)[C@]3(O)C(=O)C(C(N)=O)=C(O)[C@@H](N(C)C)[C@@H]3[C@@H](O)[C@@H]21.[Cl-] [Example 18] | 59.1
C[C@H]1c2ccc(NC(=O)CCCCCCC[P+](c3ccccc3)(c3ccccc3)c3ccccc3)c(O)c2C(=O)C2=C(O)[C@]3(O)C(=O)C(C(N)=O)=C(O)[C@@H](N(C)C)[C@@H]3[C@@H](O)[C@@H]21 [Example 2, (7-{[(5R,5aR,6S,6aR,7S,10aS)-9-carbamoyl-7-(dimethylamino)-1,6,8,10a,11-pentahydroxy-5-methyl-10,12-dioxo-5,5a,6,6a,7,10,10a,12-octahydrotetracen-2-yl]carbamoyl}heptyl)triphenylphosphonium formate] | 81.2
